Counter-ions that a name gives are not always drawn. Like-named read-outs stand apart in the source and are kept apart here.
System: reserpine-induced hypothermia
Assay: inhibition of reserpine-induced hypothermia in mice (antidepressant action)
Assay type: in vivo, mice (Swiss strain)
Conditions: for ED50: Mus musculus; for ED50 / ED50 (antidepressant action, dose which inhibits the reserpine-induced hypothermia by 50%): body temperature two hours after reserpine
Procedure: The antidepressant action of the substances according to the invention was investigated using the following model:
2.15 mg/kg of reserpine administered subcutaneously to male mice (Swiss strain) weighing 20-26 g lowers the body temperature by an average of 3° C., measured two hours after administration of the reserpine and at an ambient temperature of 20°-22° C. Antidepressants inhibit this hypothermia, the inhibition being dose-dependent. The test substances are administered orally, 60 minutes before the administration of reserpine.
The dose which inhibits the reserpine-induced hypothermia by 50%, ie. the ED50, is determined from the linear regression between log dose (mg/kg) and relative decrease in hypothermia.
In some cases, the activity is substantially greater than that of imipramine (for Example 18c, by a factor of 72).

[1] = male mice (Swiss strain), oral, 60 minutes before 2.15 mg/kg reserpine s.c., read-out: ED50 (antidepressant action, dose which inhibits the reserpine-induced hypothermia by 50%)
[2] = po, read-out: ED50 (antidepressant action, dose which inhibits the reserpine-induced hypothermia by 50%), male mice (Swiss strain), oral, 60 minutes before 2.15 mg/kg reserpine s.c.
[3] = male mice (Swiss strain), oral, 60 minutes before 2.15 mg/kg reserpine s.c.

SMILES	ED50 [1] [mg/kg]	other results
Cc1cccc(C2(CCN(C)C)CCc3ccccc3C2=O)c1 (centres unmarked) [Example 2, 1-oxo-2-(3-tolyl)-2-(2-dimethylaminoethyl)-1,2,3,4-tetrahydronaphthalenehydrochloride]	6.8	
CN(C)CCC1(c2ccc(F)cc2)CCc2ccccc2C1=O.Cl (centres unmarked) [Example 5, 1-oxo-2-(4-fluorophenyl)-2-(2-dimethylaminoethyl)-1,2,3,4-tetrahydronaphthalene hydrochloride]	4.9	
CN(C)CCC1(c2ccccc2)CCc2ccccc2C1=O (centres unmarked) [Example 1, 1-oxo-2-phenyl-2-(2-dimethylaminoethyl)-1,2,3,4-tetrahydronaphthalene]		ED50 [2]: 0.14 mg/kg
CN(C)CCC1(c2ccccc2)CCc2ccccc2C1=O (racemic) [Example 18c, 1-oxo-2-phenyl-2-(2-dimethylaminoethyl)-1,2,3,4-tetrahydronaphthalene]		ED50 (antidepressant action, dose which inhibits the reserpine-induced hypothermia by 50%) [3]: 0.09 mg/kg; activity greater than that of imipramine, by a factor of (ratio of ED50 to imipramine, oral, mice): 72
CN(C)CCC1(c2ccccc2)CCc2ccccc2C1=O (racemic) [Example 18a, 1-oxo-2-phenyl-2-(2-dimethylaminoethyl)-1,2,3,4-tetrahydronaphthalene]		ED50 (antidepressant action, dose which inhibits the reserpine-induced hypothermia by 50%) [3]: 0.85 mg/kg
CN(C)CCC1(c2ccc(Cl)cc2)CCc2ccccc2C1=O (centres unmarked) [Example 3, 1-oxo-2-(4-chlorophenyl)-2-(2-dimethylaminoethyl)-1,2,3,4-tetrahydronaphthalene]	4.6	
CN(C)CCCN1c2ccccc2CCc2ccccc21 [imipramine, reference compound]		ED50 [2]: 6.8 mg/kg
CN(C)CCC1(c2ccccc2)CCc2c(Cl)cccc2C1=O (centres unmarked) [Example 12, 1-oxo-5-chloro-2-phenyl-2-(2-dimethylaminoethyl)-1,2,3,4-tetrahydronaphthalene]	0.9	
COc1cccc(C2(CCN(C)C)CCc3ccccc3C2=O)c1.O=C(O)C(=O)O (centres unmarked) [Example 14, 1-oxo-2-(3-methoxyphenyl)-2-(2-dimethylaminoethyl)-1,2,3,4-tetrahydronaphthalene hydrogen oxalate]	2.3	
CN(C)CCC1(c2cccc(Cl)c2)CCc2ccccc2C1=O.Cl (centres unmarked) [Example 8, 1-oxo-2-(3-chlorophenyl)-2-(2-dimethylaminoethyl)-1,2,3,4-tetrahydronaphthalene hydrochloride]	5.2	
